In patent publication US5126373A, “Composition for parenteral and oral nutrition” (priority 1987, dated 1992):

Tests used:
[1] = Volume of distribution of butanediol; assay type: in vivo
From the text: In other experiments, the volume of distribution of butanediol is equal to 2/3 of the body wt, i.e. total body water.

[2] = test system: mitochondrial [NADH]/[NAD^+ ]; experiment: Redox parameters in blood of pigs; assay type: in vivo, pig; details: reflects the mitochondrial [NADH]/[NAD^+ ]
From the text: (§1) The pigs were given equicaloric amount of either:

[3] = test system: ethanol withdrawal syndrome; details: rats; cited from earlier work
[4] = cited from earlier work
[5] = Noted metabolism of esters compared with butanediol alone; assay type: in vivo; details: compared with physiological oxido-reduction ratio
[6] = RS-butanediol concentration in blood of pigs; assay type: in vivo, pig
From the text: as §1

[7] = test system: ketone bodies (R-3-hydroxybutyrate+S-3-hydroxybutyrate+acetoacetate); experiment: Total ketone body concentrations in pigs; assay type: in vivo, pig
Experimental: as §1
The total concentration of physiological and unphysiological ketone bodies (R-3-hydroxybutyrate+S-3-hydroxybutyrate+acetoacetate) never exceeded 0.8 mM in the animal receiving RS-butanediol by the continuous intravenous route. […] Therefore, there was no marked acidosis in any of the groups.

[8] = Blood glucose levels in unanesthetized young pigs; assay type: in vivo, pig; details: intravenous infusion 3 h or intragastric bolus
From the text: as §1

[9] = test system: alloxan-diabetic rats; details: cited from earlier work
[10] = test system: mammalian cells; details: cited from earlier work
[11] = Preliminary results with 1,3-pentanediol and its esters; details: liver
[12] = test system: [NADH]/[NAD^+ ]; details: inhibition of gluconeogenesis and alcoholic hypoglycemia; cited from earlier work

Compound: CC(O)CCO (racemic) [RS-butanediol, 1,3-butanediol]
- osmotic effect ([1]; butanediol liberated in blood from plasma esterases): does not exert any osmotic effect
- rate of distribution into total body water ([1]; compared with a tracer of water): at the same rate as a tracer of water
- volume of distribution ([1]; i.e. total body water): 2/3
- [R-3-hydroxybutyrate]/[acetoacetate] ratio [2]: increased
- effect on ethanol withdrawal syndrome [3]: alleviates the ethanol withdrawal syndrome in rats
- adverse effect ([4]; diet containing 5%, humans): no adverse effect
- nitrogen sparing ([4]; diet containing 5%, humans): nitrogen was spared
- metabolism in the liver ([4]; via alcohol and aldehyde dehydrogenase): metabolised in the liver to DL-3-hydroxybutyrate
- 3-hydroxybutyrate and acetoacetate ratio after metabolism in the liver [5]: more reduced than physiological
- linear decrease of butanediol concentration in blood, time ([6]; after intragastric bolus): 4 h
- concentration at 3 h ([6]; pig, blood, constant intravenous infusion for 3 h, 25% of hourly caloric requirement, read-out: RS-butanediol (free butanediol) concentration): 600 µM
- Cmax ([6]; pig, blood, intragastric bolus, 15% of daily caloric requirements, read-out: concentration of butanediol in the blood, peak): 25000 µM
- total concentration of ketone bodies ([7]; continuous intravenous infusion): ≤ 0.8 mM
- total ketone body concentration ([7]; intragastric bolus): about 1.5 mM
- Glucose levels / hypoglycemic effect [8]: do not exert a hypoglycemic effect

Compound: C[C@H](O)CC(=O)O [L-β-hydroxybutyrate]
- antidiabetic properties ([9]; test not stated): has demonstrated interesting antidiabetic properties
- use by mammalian cells [10]: very well used by mammalian cells

Compound: CCC(O)CCO (racemic) [RS-1,3-pentanediol]
- gluconeogenic and ketogenic substrate [11]: is a gluconeogenic and a ketogenic substrate

Compound: CCO [ethanol]
- redox shift [12]: an increase in [NADH]/[NAD^+ ]

Compound: C[C@H](O)CCO [L-1,3-butanediol]
- blood glucose level ([9]; alloxan-diabetic rats): useful in reducing the blood glucose level
